As usually defined, the MIC50 is the lowest concentration that inhibits either 50% of growth or 50% of the strains tested, depending on the study. A word on the MIC90: it is the lowest concentration that inhibits either 90% of growth or 90% of the strains tested, depending on the study. A word on the MBC: it is the lowest tested concentration that kills the bacteria rather than only halting them. In general, MIC refers to the smallest concentration in the dilution series that meets the test's criterion for growth inhibition.

One assay concerns HEK-293. Kind of assay: Cytotoxicity experiment (MTT), HEK-293. Particulars: HEK-293 normal cells. It counts as cell-based. As for the experimental part: (1) Inoculating cells: Experimental cells in the growth of logarithmic phase were collected and suspended. The cell concentration of the suspension was adjusted so that they could be inoculated into the wells of 96-well micro plate at a density between 10^3-10^4 cells per well (200 μl per well). (2) Culturing cells: The cells were cultured at normal conditions for 3 days and then exposed to 50 uM compounds for test. (3) Coloring reaction: At 24 h, 48 h and 72 h after the cells being exposed to the compounds for test, 200 μl culture medium containing 20 μl MTT solution (5 mg/ml) was added into each well, and the well was further incubated at 37° C. for 2 hours to terminate the incubation. After the incubation, the supernatants were removed from the wells. In the event there were suspended cells in the wells, centrifugation should be performed before removal of supernatant from the wells. After the removal, 150 μl DMSO was added to each well and mixed thoroughly by agitation for 10 mins to fully dissolve crystals. (4) Ascertainment of colorimetry: The absorbance value at 490 nm of each well was determined by Enzyme-linked immunosorbent Monitor. The growth curve of the experimental cells was plotted by taking time as x-coordinate and absorbance value as y-coordinate. In addition, an inhibition ratio could be calculated in accordance with the following formula: Inhibition ratio=(absorbance value of control group-absorbance value of administering group)/absorbance value of control group×100%.

The test system of another assay is PSSP. Kind of assay: MIC against clinically isolated strains, PSSP. Set-up: MICmode / MICrange: unit not given here. It is filed as cell-based, penicillin sensitive Streptococcus pneumoniae. From the text: (§1) Standard strains, including Staphylococcus aureus ATCC29213, S. pneumoniae ATCC49619, E. faecalis ATCC29212, are all available from the American Type Culture Collection.
(§2) Clinically isolated strains: There are total 120 clinical strains of gram-positive bacterium including: 37 strains of Staphylococcus aureus (consisting of 14 strains of methicillin sensitive Staphylococcus aureus MSSA and 23 strains of methicillin resistant Staphylococcus aureus MRSA); 27 strains of Streptococcus pneumoniae (consisting of 13 strains of penicillin sensitive Streptococcus pneumoniae PSSP and 14 strains of penicillin insensitive or resistant Streptococcus pneumoniae PISP+PRSP); 15 strains of Streptococcus pyogenes; 17 strains of Streptococcus agalactiae; 24 stains of Enterococcus faecium (consisting of 12 strains of vancomycin sensitive Enterococcus faecium and 12 strains of vancomycin resistant Enterococcus faecium).
(§3) (2) Tested compounds: Compound 13f was prepared by the methods above, with potency of over 98%; Linezolid was purchased from Pfizer, with potency of 100%.
(§4) Staphylococcus and Enterococcus faecium were incubated in Mueller-Hinton agar medium (MHA medium) at 35° C. for 16-20 h; S. pneumoniae was incubated in Cation-Adjusted Mueller-Hinton Broth medium (CAMHB medium) supplemented with 2.5-5.5% (v/v) lysed horse blood (LHB) at 35° C. for 20-24 h; and Streptococcus were incubated in sheep blood-containing medium (prepared by addition of 5% defibrinated sheep blood into MHA media) at 35° C. for 20-24 h in 5% CO2 environment (CO2 incubator). Before test of the compound activity, each stock of the bacteria strains was activated and colonized in the following manner: the stock was transferred and cultured in a liquid culture medium, the culture liquid was smeared onto an agar plate with an inoculating loop to obtain bacterial colonies on the plate after incubation, and then a colony of the bacteria was chose to be suspended into the liquid culture medium for performing the test of compound activity. As a result, fresh bacteria cells were applied to the test. The standard strains were used as sensitive bacterium to control the quality of the experiments, and a plate or tube containing no antibacterial compounds is used as a blank control for the growth of test strains.
(§5) The minimal inhibitory concentration (MIC) of the test compounds on the strains of Streptococcus pneumoniae was determined by a standard broth macrodilution method, while the MIC of the test compounds on the other bacteria stains was determined by standard agar double dilution methods. […] The MIC of the test compound to each strain of the bacteria was determined.

The test system of a further assay is PNSP. The assay can be described thus: MIC against clinically isolated strains, PNSP. Particulars: PNSP (14 grains). It is filed as cell-based, penicillin insensitive or resistant Streptococcus pneumoniae. Set-up: MICmode / MICrange: unit not given here.
Description: as §1, §2, §3, §4, §5

A further assay deals with VSE. Kind of assay: Minimum bactericidal concentration (MBC) test, VSE. It counts as cell-based, vancomycin sensitive Enterococcus faecium. The procedure:
as §4
(§6) The minimal inhibitory concentration (MIC) of the test compounds on the strains of Streptococcus pneumoniae was determined by a standard broth macrodilution method, while the MIC of the test compounds on the other bacteria stains was determined by standard agar double dilution methods. The concentration of the test compounds was in the range of 32 mg/L-0.016 mg/L. The bacterial suspensions to be tested were inoculated by a multipoint inoculator, and the inoculation amount at each point is 10^4 CFU. The MIC of the test compound to each strain of the bacteria was determined.
(§7) The MBC was determined by a tube double dilution method. Solutions of the test compounds was prepared and serially diluted. Each of the solutions was mixed with a bacterium suspension (10^6 CFU/mL), and then was incubated at 35° C. overnight. 0.1 mL of the culture supernatant of each tubes was inoculated on a plate containing no antibiotics, and then incubated at 35° C. for 18 h.

Assay [1] deals with MRSA. Kind of assay: MIC against clinically isolated strains, MRSA. It counts as cell-based, methicillin resistant Staphylococcus aureus. Set-up: MICmode / MICrange: unit not given here. The note with it: MRSA (23 strains).
Description: as §1, §2, §3, §4, §5

The subject of a further assay is VRE. The assay can be described thus: Minimum bactericidal concentration (MBC) test, VRE. It counts as cell-based, vancomycin resistant Enterococcus faecium. As for the experimental part:
as §4, §6, §7

Another assay deals with MSSA. Kind of assay: MIC against clinically isolated strains, MSSA. It is filed as cell-based, methicillin sensitive Staphylococcus aureus. On the set-up: MICmode / MICrange: unit not given here. Particulars: MSSA (14 strains).
Description: as §1, §2, §3, §4, §5

The subject of assay [2] is MRSA. The assay can be described thus: Minimum bactericidal concentration (MBC) test, MRSA. It counts as cell-based, methicillin resistant Staphylococcus aureus. As for the experimental part:
as §4, §6
The MBC was determined by a tube double dilution method. Solutions of the test compounds was prepared and serially diluted. Each of the solutions was mixed with a bacterium suspension (10^6 CFU/mL), and then was incubated at 35° C. overnight. […]

Another assay has as its system gram-positive bacteria. The assay can be described thus: MIC against 120 strains of clinically isolated gram-positive bacteria. Particulars: 120 clinically isolated gram-positive strains. It is filed as cell-based.
Description: In order to further study the antibacterial spectrum of Compound 13f, we tested in vitro inhibitory activity of compound 13f on 120 strains of gram-positive bacteria established by clinical isolation, and the MIC values were shown in Table 3.
as §2, §5

Where [3] appears, read: Streptococcus pneumoniae, PSSP (13 strains).
[4] abbreviates: Enterococcus faecium, strain 09D263, VSE.
[5] abbreviates: Enterococcus, strain 09ZB145, VRE.

Values after ≈ are worked out from the molar mass of the structure shown.

As to `CC(=O)NC[C@H]1CN(c2ccc(-n3cc(-c4ccccn4)cn3)c(F)c2)C(=O)O1` [Compound 13f, (S)-N-((3-(3-fluoro-4-(4-(pyridin-2-yl)-1H-pyrazol-1-yl)phenyl)-2-oxooxazolidin-5-yl)methyl)acetamide], the cytotoxicity at 50 µM in the assay with HEK-293 (Homo sapiens, HEK293, 48 h, read-out: Inhibition ratio) was 2.7%. Also, the MICrange in the assay with PSSP (PSSP (13 grains)), in the assay with PNSP, in the assay with MRSA [1] and with MSSA was 0.5-1 in each case. Also, the MICmode in the assay on PSSP (PSSP (13 strains)) is 1; in the assay on PNSP it was 0.5; against MRSA [1], 1; against MSSA it was 1. Moreover, the MIC50 against PSSP (setting [3]) turned out to be 1 ng/mL (≈ 2.53 nM); in the assay on PNSP (Streptococcus pneumoniae), 0.5 ng/mL (≈ 1.26 nM); in the assay with MRSA [1] (Staphylococcus aureus), 1 ng/mL (≈ 2.53 nM); against MSSA (Staphylococcus aureus), 1 ng/mL (≈ 2.53 nM). The MIC90 against PSSP (setting [3]), with PNSP (Streptococcus pneumoniae), against MRSA [1] (Staphylococcus aureus) and in the assay with MSSA (Staphylococcus aureus) was 1 ng/mL (≈ 2.53 nM) throughout. The MBC in the assay on VSE (setting [4]) and against VRE (setting [5]) was 8 ng/mL (≈ 20.2 nM) each time. The MIC against VSE (setting [4]) and in the assay with VRE (setting [5]) was 4 ng/mL (≈ 10.1 nM) in each case. In addition, the MBC/MIC in the assay with VSE (strain 09D263, VSE) came to 2; against VSE (strain 09H202, VSE) it was 2; in the assay on VRE (strain 09ZB137, VRE) it was 2; against VRE (strain 09ZB145, VRE) it was 2; in the assay on MRSA [2] (strain 09L075, MRSA) it was 2; with MRSA [2] (strain 09N120, MRSA) it was 1. The MBC value in the assay on VSE (strain 09H202, VSE) came to 8 ng/mL (≈ 20.2 nM); in the assay on VRE (strain 09ZB137, VRE), 8 ng/mL (≈ 20.2 nM). Moreover, the MIC value against VSE (strain 09H202, VSE) stood at 4 ng/mL (≈ 10.1 nM); against VRE (strain 09ZB137, VRE) it was 4 ng/mL (≈ 10.1 nM); against MRSA [2] (strain 09L075, MRSA) it was 2 ng/mL (≈ 5.06 nM). In addition, the “antibacterial activity on test strains compared with Linezolid” value in the assay with gram-positive bacteria was “almost the same with that of Linezolid”.

In the case of `CC(=O)NC[C@H]1CN(c2ccc(N3CCOCC3)c(F)c2)C(=O)O1` [Linezolid, reference compound], in the assay with HEK-293 (50 uM, 48 h), the Inhibition ratio is given as more than 50%.
